Measurements from patent US6956030B2, “Use of mometasone furoate for treating upper airway diseases” (Schering Corporation, priority 1994, dated 2005).
Like-named read-outs stand apart in the source and are kept apart here.

Tests used:
plasma cortisol = test: Phase I rising single-dose safety and tolerance study, metered dose inhaler, 24-hour plasma cortisol; format: in vivo, healthy male volunteers
Procedure: Several Phase I studies were conducted using mometasone furoate formulated for delivery as a suspension in a pressurized metered dose inhaler (MDI). In a randomized, third-party blinded, placebo-controlled rising single-dose safety and tolerance study, aerosolized mometasone furoate was administered by a metered dose inhaler to eight healthy male volunteers. Doses were administered at 11 p.m. and plasma cortisol concentrations were measured during the following 24-hour period.

[1] = tested on: symptomatic patients with seasonal allergic rhinitis; test: Onset of clinical efficacy study, nasal spray, 14 days, total nasal symptom score; format: in vivo
Procedure: The study lasted 14 days in length. Data from 201 patients were used for analysis. a. Signs and symptoms were individually scored by the patient on the diary card, and by the investigator or designee at Screening and Baseline (Day 1), Day 4, Day 8, and Day 15 after treatment. All symptoms (nasal and non-nasal) were rated by the investigator or designee according to the following scale: The overall condition of rhinitis was evaluated by the investigator or designee and patient at the same time as symptoms, and scored according to the following criteria: 3. Drug—Each patient was given a metered nasal pump spray bottle containing either an aqueous suspension of mometasone furoate or placebo. […] After the Baseline visit, each patient was instructed to enter into his/her diary the information about the time of onset of nasal relief and level of nasal symptom relief as no relief, slight, moderate, marked, or complete. At Baseline and each follow-up visit, the physician evaluated the following signs and symptoms of allergic rhinitis, scored as 0=none, 1=mild, 2=moderate, 3=severe. • a. NASAL SYMPTOMS • nasal discharge • congestion/stuffiness • sneezing • itching • b. […] At each follow-up visit post Baseline, the physician and patient evaluated the therapeutic response as 5=no relief, 4=slight relief, 3=moderate relief, 2=marked relief, 1=complete relief. After the Baseline visit, each morning and evening the patient completed a diary to assess the 8 signs and symptoms of allergic rhinitis as described above. The primary efficacy results are based on a survival analysis of the onset times of relief (defined as the first time patient experienced at least moderate relief of nasal symptoms) for the mometasone furoate nasal spray and placebo groups. In this analysis, patients reporting slight or no relief for the first 3 days after treatment were censored at Day 3. Also, results from the patient regular diary (by 15-day average) data were evaluated. Data from 201 patients were used in the survival analysis.

[2] = tested on: patients with asthma requiring treatment with inhaled corticosteroids; test: Randomized double-blinded multicenter Phase II study, MDI BID for 4 weeks; format: in vivo
Procedure: In a recently completed, randomized, double-blinded multicenter, Phase II study, 395 patients with asthma requiring treatment with inhaled corticosteroids were randomized to one of the five treatment groups: mometasone furoate (MDI 112 mcg/day, 400 mcg/day or 1000 mcg/day, beclomethasone dipropionate (BDP) 336 mcg/day, or placebo. All treatment regimens consisted of BID dosing for 4 weeks. PROVENTIL inhalation aerosol (albuterol, USP) was supplied as rescue medication.
Efficacy was evaluated by spirometry and by physician and patient evaluation of asthma signs and symptoms. The forced expiratory volume in one second (FEV1), forced vital capacity (FVC), and forced expiratory flow between 25% to 75% (FEF25%−75%) were measured at each visit by the investigator. The peak expiratory flow rate (PEFR) was measured twice daily (AM and PM) by the patient. FEV1 at endpoint of treatment (last evaluable visit) was the primary measure of efficacy. The investigator (at all visits) and the patient (twice daily) rated wheezing, tightness in chest, shortness of breath, and cough on a scale from 0 (None) to 6 (Incapacitating). In addition, the investigator rated the overall condition of asthma on the same scale at each visit, and the patient kept a diary of the total number of asthma attacks each day, the number of night awakenings due to asthma, and the total number of puffs of Proventil (protocol-permitted rescue medication) used. The actual value and changes from Baseline were analyzed for each visit.

[3] = tested on: patients with mild asthma
[4] = Aqueous suspension once-a-day in allergic rhinitis (summary statement); format: in vivo
Text: In treating allergic and non-allergic rhinitis, the aqueous suspension of mometasone furoate may be administered intranasally by inserting an appropriate device (such as the pump spray bottle used to deliver […]® Nasal Spray as well as the spray bottle disclosed in the Schering Corporation Industrial Design Deposit DM/026304 registered Jun. 1, 1993) into each nostril. Active drug is then expelled (nasal spray device) or could be nasally inhaled (sniffed) as a powder. Efficacy is generally assessed in a double blind fashion by a reduction in nasal symptoms (e.g., sneezing, itching, congestion, and discharge). Other objective measurements (e.g., nasal peak flow and resistance) can be used as supportive indices of efficacy. For treatment of allergic and/or inflammatory diseases of the lower airways and lung parenchyma especially diseases such as asthma, chronic obstructive pulmonary disease (“COPD”), granulomatus diseases of the lungs and lower airway passage, non-malignant proliferative disease of the lungs e.g., idiopathic pulmonary fibrosis, hypersensitivity pneumonitis and bronchopulmonary dysplasia the following dosage ranges of mometasone furoate may be used: […] Typically 2-4 mL of the aqueous suspension of mometasone furoate monohydrate may be placed in a plastic nebulizer container and the patient would inhale for 2-10 minutes.

Structure (SMILES): C[C@@H]1C[C@H]2[C@@H]3CCC4=CC(=O)C=C[C@]4(C)[C@@]3(Cl)[C@@H](O)C[C@]2(C)[C@@]1(OC(=O)c1ccco1)C(=O)CCl [mometasone furoate]
- reduction of 24-hour area under the curve plasma cortisol profile (AUC 0-24) compared to placebo (plasma cortisol; single dose 1000 mcg by MDI at 11 p.m.): 13%
- reduction of 24-hour area under the curve plasma cortisol profile (AUC 0-24) compared to placebo (plasma cortisol; single dose 2000 mcg by MDI at 11 p.m.): 23%
- reduction of 24-hour area under the curve plasma cortisol profile (AUC 0-24) compared to placebo (plasma cortisol; single dose 4000 mcg by MDI at 11 p.m.): 36%
- reduction in total nasal symptom score from baseline ([1]; morning & evening averaged diary, 15-days average): statistically significantly higher than that for the placebo group
- median onset time to relief (at least moderate relief of nasal symptoms) ([1]; nasal spray 200 mcg once-a-day, survival analysis, placebo 72 hours, log-rank p<0.001): 35.9 h
- patients who recorded slight or no relief (censored) at Day 3 ([1]; of 101 patients, placebo 50 of 100): 24 patients
- total asthma scores, assessment of overall condition, therapeutic response ([2]; all doses): superiority of all mometasone furoate doses relative to placebo
- improvement of a.m. PEFR versus BDP ([2]; all doses, final week of treatment): significantly better than 336 mg dose of BDP
- FEV1 versus BDP 336 mcg/day ([2]; two higher doses (400, 1000 mcg/day), Days 14, 21 and 28): superior to beclomethasone dipropionate
- FEV1 versus low dose (112 mcg/day) ([2]; two higher doses, Day 21 and Day 28): significantly superior to the low mometasone furoate dose
- FEV1 compared to placebo ([3]; 1 mg/day group, day 1): statistically significant, clinically meaningful improvement
- mean increase in FEV1 versus placebo ([3]; 1, 2 and 4 mg/day groups, every time point day 3 to day 28): statistically significantly greater than for the placebo group
- 8 a.m. plasma cortisol ([3]; 1000 mcg or 2000 mcg daily, statistically significant compared to placebo): small decreases from Baseline on Days 15 and 21
- 8 a.m. plasma cortisol ([3]; 4000 mcg daily, statistically different from placebo Day 3 through Day 28): greater decreases in plasma cortisol
- increase in FEV1 from Baseline ([3]; at a majority of time points): ≥ 15%
- response to ACTH infusion at post-treatment (Day 30) ([3]; in vivo): significant increases from Baseline in plasma cortisol
- pulmonary function measured by FEV1 ([3]; three treated groups, MDI twice daily): clinically meaningful increases in pulmonary function
- safety and efficacy in allergic rhinitis ([4]; 25 up to 1600 micrograms once-a-day): safe and effective
- dose dependence of treatment effect ([4]; once-a-day): no improvement in treatment is typically found above 400 micrograms a day
